The structures appear in SMILES notation.

The series is classed as physicochemical. The settings on record: HPLC on reversed phase columns, method [a]: pH 2.7, 0.1% formic acid in water and acetonitrile, linear gradient 10% to 95% acetonitrile.
Turning to `C#CC1(NC(=O)C2(C)CC(c3ccc4ncc(Br)cc4c3)=NO2)COC1` (centres unmarked) [compound 722], the “log P” value was 2.37[a].
Next, `C/C(=N\O)NC(=O)C1(C)CC(c2ccc3ncc(Br)cc3c2)=NO1` (centres unmarked) [compound 723]: 2.04[a]; `CCn1cc(CNC(=O)C2(C)CC(c3ccc4ncc(Br)c(Cl)c4c3)=NO2)c(C)n1` (centres unmarked) [compound 735]: 2.69[a]; `CC(C)NC(=O)C1(C)CC(c2ccc3ncc(Br)c(Cl)c3c2)=NO1` (centres unmarked) [compound 736]: 2.39[a].
Consider `CC(C)NC(=O)C1(C#N)CC(c2ccc3ncc(Br)cc3c2)=NO1` (centres unmarked) [compound 737], for which the “log P” value was 2.86[a].
Next, `CC(C)/C(=N\O)NC(=O)C1(C)CC(c2ccc3ncc(Br)cc3c2)=NO1` (centres unmarked) [compound 738]: 2.50[a].
For `CC1(C(=O)N/C(=N/O)C(C)(C)C)CC(c2ccc3ncc(Br)cc3c2)=NO1` (centres unmarked) [compound 739], the “log P” value is 2.88[a].
Regarding `CC1(C(=O)N/C(=N/O)C2CC2)CC(c2ccc3ncc(Br)cc3c2)=NO1` (centres unmarked) [compound 740], the “log P” value was 2.35[a].
Consider `CC1(C(=O)N/C(=N/O)c2cccnc2)CC(c2ccc3ncc(Br)cc3c2)=NO1` (centres unmarked) [compound 741], for which the “log P” value is 2.10[a].
For the compound `CCC(C)NC(=O)C1(C)CC(c2ccc3ncc(Br)cc3c2)=NO1` (centres unmarked) [compound 742], the “log P” value was 3.37[a].
Take `CC(C)CNC(=O)C1(C)CC(c2ccc3ncc(Br)cc3c2)=NO1` (centres unmarked) [compound 743]: the “log P” value was 3.15[a].
`CCc1ccc(CNC(=O)C2(C)CC(c3ccc4ncc(Br)cc4c3)=NO2)nc1` (centres unmarked) [compound 744]: the “log P” value is 2.05[a].
`C#Cc1cnc2ccc(C3=NOC(C)(C(=O)NCc4cc(CC)ccn4)C3)cc2c1` (centres unmarked) [compound 745]: the “log P” value is 1.64[a].
In the case of `CCc1cccc(CNC(=O)C2(C)CC(c3ccc4ncc(Br)cc4c3)=NO2)n1` (centres unmarked) [compound 746], the “log P” value was 1.88[a].
As for `C#Cc1cnc2ccc(C3=NOC(C)(C(=O)NCc4ccc(CC)cn4)C3)cc2c1` (centres unmarked) [compound 747], the figure is 1.82[a].
For `CC1(C(=O)NCc2cc(C#N)ccn2)CC(c2ccc3ncc(Br)cc3c2)=NO1` (centres unmarked) [compound 748], the “log P” value was 2.48[a].
As for `C#Cc1cnc2ccc(C3=NOC(C)(C(=O)NCc4cccc(CC)n4)C3)cc2c1` (centres unmarked) [compound 749], the figure is 1.67[a]; as for `CC(C)c1ccnc(CNC(=O)C2(C)CC(c3ccc4ncc(Br)cc4c3)=NO2)c1` (centres unmarked) [compound 750], 2.05[a].
With `C#Cc1cnc2ccc(C3=NOC(C)(C(=O)NCc4cc(C#N)ccn4)C3)cc2c1` (centres unmarked) [compound 751], the “log P” value is 2.20[a].
`CCc1ccnc(CNC(=O)C2(C)CC(c3ccc4ncc(Br)cc4c3)=NO2)c1` (centres unmarked) [compound 752]: the “log P” value is 1.82[a].
As for `C#Cc1cnc2ccc(C3=NOC(C)(C(=O)NCC4(C)CCC4)C3)cc2c1` (centres unmarked) [compound 753], the “log P” value was 3.27[a].
As for `CC1(C(=O)NCC2CC(F)(F)C2)CC(c2ccc3ncc(Br)cc3c2)=NO1` (centres unmarked) [compound 754], the figure is 2.98[a].
In the case of `CC1(C(=O)NC2CC(F)(F)C2)CC(c2ccc3ncc(Br)cc3c2)=NO1` (centres unmarked) [compound 755], the “log P” value is 2.86[a].
Next, `C#Cc1cnc2ccc(C3=NOC(C)(C(=O)NCC4CS(=O)(=O)CCO4)C3)cc2c1` (centres unmarked) [compound 756]: 1.93[a]; `CC1(CNC(=O)C2(C)CC(c3ccc4ncc(Br)cc4c3)=NO2)CCC1` (centres unmarked) [compound 757]: 3.65[a]; `C#Cc1cnc2ccc(C3=NOC(C)(C(=O)NCc4ccnc(O)c4)C3)cc2c1` (centres unmarked) [compound 758]: 1.54[a].
Regarding `CCC(C)Oc1cc(CNC(=O)C2(C)CC(c3ccc4ncc(Br)cc4c3)=NO2)ccn1` (centres unmarked) [compound 759], the “log P” value is 3.48[a].
On to `C#Cc1cnc2ccc(C3=NOC(C)(C(=O)NCc4ccnc(OC(C)CC)c4)C3)cc2c1` (centres unmarked) [compound 760], for which the “log P” value is 3.06[a].
On to `CC1(C(=O)NCc2ccnc(NC3CC3)c2)CC(c2ccc3ncc(Br)cc3c2)=NO1` (centres unmarked) [compound 761], for which the “log P” value is 1.58[a].
`C#Cc1cnc2ccc(C3=NOC(C)(C(=O)NCc4ccnc(C(F)(F)F)c4)C3)cc2c1` (centres unmarked) [compound 762]: the “log P” value was 2.64[a].
For `CC(C)Oc1cc(CNC(=O)C2(C)CC(c3ccc4ncc(Br)cc4c3)=NO2)ccn1` (centres unmarked) [compound 763], the “log P” value was 3.09[a].
In the case of `C#Cc1cnc2ccc(C3=NOC(C)(C(=O)NCc4ccnc(OC(C)C)c4)C3)cc2c1` (centres unmarked) [compound 764], the “log P” value is 2.71[a].
With `CC1(C(=O)NCc2ccnc(O)c2)CC(c2ccc3ncc(Br)cc3c2)=NO1` (centres unmarked) [compound 765], the “log P” value was 1.72[a].
As for `C#Cc1cnc2ccc(C3=NOC(C)(C(=O)NCCc4ccc(C(F)(F)F)cc4Cl)C3)cc2c1` (centres unmarked) [compound 766], the figure is 3.76[a]; as for `CC(NNC(=O)C1(C)CC(c2ccc3ncc(Br)cc3c2)=NO1)C1CC1` (centres unmarked) [compound 767], 2.51[a]; as for `C#Cc1cnc2ccc(C3=NOC(C)(C(=O)NC(C4CC4)C4CC4)C3)cc2c1` (centres unmarked) [compound 768], 3.21[a].
Consider `CC1(C(=O)NCCc2ccc(C(F)(F)F)cc2Cl)CC(c2ccc3ncc(Br)cc3c2)=NO1` (centres unmarked) [compound 769], for which the “log P” value was 4.21[a].
Turning to `C#Cc1cnc2ccc(C3=NOC(C)(C(=O)NNC(C)C4CC4)C3)cc2c1` (centres unmarked) [compound 770], the “log P” value was 2.21[a].
Next, `CC1(C(=O)N2CCOCC2)CC(c2ccc3ncc(Br)cc3c2)=NO1` (centres unmarked) [compound 771]: 2.48[a]; `C#Cc1cnc2ccc(C3=NOC(C)(C(=O)NCc4cnn(CC(F)(F)F)c4)C3)cc2c1` (centres unmarked) [compound 772]: 2.34[a]; `CC1(C(=O)NC(C2CC2)C2CC2)CC(c2ccc3ncc(Br)cc3c2)=NO1` (centres unmarked) [compound 773]: 3.57[a].
Take `C#Cc1cnc2ccc(C3=NOC(C)(C(=O)N4CCOCC4)C3)cc2c1` (centres unmarked) [compound 774]: the “log P” value is 2.18[a].
As to `CC1(C(=O)NCC2CCC2)CC(c2ccc3ncc(Br)cc3c2)=NO1` (centres unmarked) [compound 775], the “log P” value was 3.25[a].
As for `C#Cc1cnc2ccc(C3=NOC(C)(C(=O)NC4CC(F)(F)C4)C3)cc2c1` (centres unmarked) [compound 776], the figure is 2.57[a]; as for `CC1(C(=O)NCc2cnn(CC(F)(F)F)c2)CC(c2ccc3ncc(Br)cc3c2)=NO1` (centres unmarked) [compound 777], 2.60[a].
Regarding `C#Cc1cnc2ccc(C3=NOC(C)(C(=O)NCC4CCC4)C3)cc2c1` (centres unmarked) [compound 778], the “log P” value is 2.88[a].
Regarding `C#Cc1cnc2ccc(C3=NOC(C)(C(=O)NCc4cncc(C#N)c4)C3)cc2c1` (centres unmarked) [compound 779], the “log P” value is 2.10[a].
For the compound `CN(C)c1ncccc1CNC(=O)C1(C)CC(c2ccc3ncc(Br)cc3c2)=NO1` (centres unmarked) [compound 780], the “log P” value is 1.60[a].
As for `C#Cc1cnc2ccc(C3=NOC(C)(C(=O)NCc4cncc(F)c4)C3)cc2c1` (centres unmarked) [compound 781], the figure is 2.13[a]; as for `CC1(C(=O)NCc2cncc(C#N)c2)CC(c2ccc3ncc(Br)cc3c2)=NO1` (centres unmarked) [compound 782], 2.35[a]; as for `C#Cc1cnc2ccc(C3=NOC(C)(C(=O)NCc4cccnc4F)C3)cc2c1` (centres unmarked) [compound 783], 2.23[a].
For `CC1(C(=O)NCc2cncc(F)c2)CC(c2ccc3ncc(Br)cc3c2)=NO1` (centres unmarked) [compound 784], the “log P” value is 2.37[a].
On to `C#Cc1cnc2ccc(C3=NOC(C)(C(=O)NCc4cccnc4OCC)C3)cc2c1` (centres unmarked) [compound 785], for which the “log P” value was 2.84[a].
Turning to `CC1(C(=O)NCc2cccnc2F)CC(c2ccc3ncc(Br)cc3c2)=NO1` (centres unmarked) [compound 786], the “log P” value was 2.51[a].
Take `C#Cc1cnc2ccc(C3=NOC(C)(C(=O)NCc4cnc(Cl)cn4)C3)cc2c1` (centres unmarked) [compound 787]: the “log P” value is 2.43[a].
Next, `CCOc1ncccc1CNC(=O)C1(C)CC(c2ccc3ncc(Br)cc3c2)=NO1` (centres unmarked) [compound 788]: 3.21[a].
`C#Cc1cnc2ccc(C3=NOC(C)(C(=O)NCc4cncc(Cl)n4)C3)cc2c1` (centres unmarked) [compound 789]: the “log P” value is 2.41[a].
Consider `CC1(C(=O)NCc2cnc(Cl)cn2)CC(c2ccc3ncc(Br)cc3c2)=NO1` (centres unmarked) [compound 790], for which the “log P” value is 2.73[a].
As for `C#Cc1cnc2ccc(C3=NOC(C)(C(=O)NCc4cncc(OC)n4)C3)cc2c1` (centres unmarked) [compound 791], the figure is 2.25[a]; as for `CC1(C(=O)NCc2cncc(Cl)n2)CC(c2ccc3ncc(Br)cc3c2)=NO1` (centres unmarked) [compound 792], 2.71[a].
As to `C#Cc1cnc2ccc(C3=NOC(C)(C(=O)NCc4cc(C(C)C)ccn4)C3)cc2c1` (centres unmarked) [compound 793], the “log P” value was 1.84[a].
As to `COc1cncc(CNC(=O)C2(C)CC(c3ccc4ncc(Br)cc4c3)=NO2)n1` (centres unmarked) [compound 794], the “log P” value was 2.53[a].
Consider `CC1(C(=O)NCc2ccnc(C(F)(F)F)c2)CC(c2ccc3ncc(Br)cc3c2)=NO1` (centres unmarked) [compound 795], for which the “log P” value is 2.96[a].
`C#Cc1cnc2ccc(C3=NOC(C)(C(=O)NCc4ccnc(SC(C)(C)C)c4)C3)cc2c1` (centres unmarked) [compound 796]: the “log P” value is 3.02[a].
In the case of `CC(C)(C)Sc1cc(CNC(=O)C2(C)CC(c3ccc4ncc(Br)cc4c3)=NO2)ccn1` (centres unmarked) [compound 797], the “log P” value was 3.44[a].
Turning to `C#Cc1cnc2ccc(C3=NOC(C)(C(=O)NCc4ccnc(SC)c4)C3)cc2c1` (centres unmarked) [compound 798], the “log P” value was 2.32[a].
Turning to `CSc1cc(CNC(=O)C2(C)CC(c3ccc4ncc(Br)cc4c3)=NO2)ccn1` (centres unmarked) [compound 799], the “log P” value is 2.62[a].
With `C#Cc1cnc2ccc(C3=NOC(C)(C(=O)NCc4ccnc(N(C)C)c4)C3)cc2c1` (centres unmarked) [compound 800], the “log P” value was 1.36[a].
As for `CN(C)c1cc(CNC(=O)C2(C)CC(c3ccc4ncc(Br)cc4c3)=NO2)ccn1` (centres unmarked) [compound 801], the figure is 1.49[a]; as for `C#Cc1cnc2ccc(C3=NOC(C)(C(=O)NCc4ccnc(F)c4)C3)cc2c1` (centres unmarked) [compound 802], 2.23[a]; as for `CC1(C(=O)NCc2ccnc(F)c2)CC(c2ccc3ncc(Br)cc3c2)=NO1` (centres unmarked) [compound 803], 2.51[a].
